Reference: patent EP2792360A1, “(1aR,12bS)-8-cyclohexyl-11-fluoro-N-((1-methylcyclopropyl)sulfonyl)-1a-((3-methyl-3,8-diazabicyclo[3.2.1]oct-8-yl)carbonyl)-1,1a,2,2b-tetrahydrocyclopropa[d]indolo[2,1-a][2]benzazepine-5-carboxamide for use in treating HCV” (IP Gesellschaft für Management mbH, priority 2013, dated 2014)

How the values were obtained:
blood uric acid = experiment: Multiple dose study of TS dispersion, 14 days (Example 6): blood uric acid level; format: in vivo, healthy subjects and elderly subjects
Procedure: Example 3 - Preparation of dispersions for oral administration: (a) Using the tosylate salt of 4-r2-(5-Amino-1 H-pyrazol-4-yl)-4-chlorophenoxyl-5- chloro-2-fluoro-N-(1,3-thiazol-4-yl)benzenesulfonamide: Methylcellulose vehicle (0.5% w/v) was prepared as follows. Water for irrigation (600 ml.) was heated in a beaker to between 80°C and 90°C. Methylcellulose (5 g) powder was added, with stirring, until the powder had fully dispersed. The dispersion was then transferred into an ice bath and cooled rapidly whilst adding chilled water for irrigation (400 ml.) to give a clear solution. The dispersion for oral administration was prepared by weighing the required quantity of 4-[2-(5-amino-1 H-pyrazol-4-yl)-4-chlorophenoxy]-5-chloro-2-fluoro-N- (1,3-thiazol-4-yl)benzenesulfonamide tosylate (from 10mg to 2400mg) into an appropriately sized glass amber dosing bottle and adding a volume of vehicle (0.5% (w/v) methylcellulose). The volume of vehicle added was dependant on dose: 15 ml. for doses of drug in the range 10 mg to < 30 mg; and 50 ml. for doses of drug in the range 30 mg to 2400 mg, so that the drug concentration was in the range 0.6 to 50 mg/mL. The dispersion was stored at 2 to 8°C and administered within 72 hours directly from the dosing containers. After administration the glass dosing bottle was rinsed with two approximate equal aliquots of drinking water such that the total volume administered, including dosing volume, was 240 ml_. (b) Using the SDD of 4-[2-(5-Amino-1 H-pyrazol-4-yl)-4-chlorophenoxyl-5-chloro-2- fluoro-N-(1,3-thiazol-4-yl)benzenesulfonamide: Methylcellulose vehicle 0.5% (w/v) was prepared using the procedure set out in Example 3(a) above. The dispersion for oral administration was prepared by weighing the required quantity of 4-[2-(5-amino-1 H-pyrazol-4-yl)-4-chlorophenoxy]-5-chloro-2-fluoro-N- (1,3-thiazol-4-yl)benzenesulfonamide SDD into an appropriately sized glass amber dosing bottle and adding a volume of vehicle (0.5% (w/v) Methylcellulose). The volume of vehicle added was dependent on dose: 20 ml. to 100 ml. over the dose range 10 mg to 2400 mg, so that the drug concentration was in the range 0.6 to 50 mg/mL. The dispersion was stored at 2 to 8°C and administered within 72 hours directly from the dosing containers. After administration the glass dosing bottle was rinsed with two approximate equal aliquots of drinking water such that the total volume administered, including dosing volume, was 240 ml_. […] Uric acid measurements were performed using a commercial colorimetric assay kit (Beckman Coulter). […]

uric acid in urine = experiment: Multiple dose study of TS dispersion, 14 days (Example 6): uric acid excretion in urine; format: in vivo, healthy subjects and elderly subjects; details: 24 hour urine, Days 1, 6, 14, 16; returns to baseline by Day 16
Procedure: Example 6 - Multiple dose study: a double-blind, randomized, placebo-controlled, study in healthy subjects and elderly subjects: Multiple oral doses of 4-[2-(5-amino-1 H-pyrazol-4-yl)-4-chlorophenoxy]-5-chloro-2-fluoro-N-(1,3-thiazol-4-yl)benzenesulfonamide TS dispersion for oral administration, and placebo, were investigated for 14 days, as follows: • healthy subjects, 300 mg twice daily (BID,) • healthy subjects, 450 mg BI D, and • elderly subjects, 300 mg BID.
Subjects were fasted overnight prior to the morning doses and for at least 2 hours prior to the evening doses. Food was withheld for at least 2 hours postdose. A total of 49 subjects were enrolled in the study of which 39 received 4-[2-(5-amino-1 H-pyrazol-4-yl)-4-chlorophenoxy]-5-chloro-2-fluoro-N-(1,3-thiazol-4-yl)benzenesulfonamide TS and 10 received placebo. […]
Concentrations of uric acid in blood decreased following dosing with 4-[2-(5-amino-1 H-pyrazol-4-yl)-4-chlorophenoxy]-5-chloro-2-fluoro-N-(1,3-thiazol-4-yl)benzenesulfonamide. All subjects had blood uric acid values above the LLN on Day 1. […] Uric acid was also measured in urine collected over 24 hours prior to dosing on Day 1, and then on Days 6, 14 and 16. The percent excreted fraction of uric acid in urine was calculated and analyzed with a linear mixed effects model.

[1] = test system: genotype lb HCV replicon (Huh-7); experiment: microbe, parasite or virus in culture; details: Hepatitis C virus, Huh-7, 72 h
Procedure: The protein was expressed with an 18 amino acid C-terminal truncation to enhance the solubility. The E. coli competent cell line BL21(DE3) was used for expression of the protein. […] The cultures were cooled to 20 °C and induced with 1 mM IPTG. […] After addition of the lysis buffer, frozen cell pellets were resuspended using a tissue homogenizer. To reduce the viscosity of the sample, aliquots of the lysate were sonicated on ice using a microtip attached to a Branson sonicator. […] The protein was purified using two sequential chromatography steps: Heparin sepharose CL-6B and polyU sepharose 4B. […] Each column was eluted with a NaCl gradient which varied in length from 5-50 column volumes depending on the column type. […] The enzyme was aliquoted and stored at -80 °C. […] Unbound primer was removed after centrifugation. […] After incubating for at least 15 minutes, plates were read on an Amersham LEADseeker multimodality imaging system. IC50 values for compounds were determined using ten different [I]. […] Cell lines. […] These cells were maintained in Dulbecco's modified Eagle medium (DMEM) containing 10% FBS, 100 U/mL penicillin/streptomycin and 1.0 mg/mL G418. […]

In the case of `Nc1[nH]ncc1-c1cc(Cl)ccc1Oc1cc(F)c(S(=O)(=O)Nc2cscn2)cc1Cl` [4-[2-(5-amino-1H-pyrazol-4-yl)-4-chlorophenoxy]-5-chloro-2-fluoro-N-(1,3-thiazol-4-yl)benzenesulfonamide], the “day on which median blood uric acid concentrations fell below LLN” value (blood uric acid; 450 mg BID) is reported as “Day 3”, the “median blood uric acid concentration relative to LLN” value (blood uric acid; all cohorts (300 mg and 450 mg BID), Day 6) is reported as “below the LLN” and the “Concentrations of uric acid in blood” value (blood uric acid; following dosing, given as TS dispersion 300 mg or 450 mg BID) is reported as “decreased”. The “time after cessation of dosing until blood uric acid returned to above the LLN for all subjects” value (blood uric acid; i.e. by Day 16) was ≤ 2 days and the “excreted fraction of uric acid in urine” value (uric acid in urine) was “increases during dosing”.
Work on `CN1CC2CCC(C1)N2C(=O)[C@]12C[C@H]1c1cc(F)ccc1-c1c(C3CCCCC3)c3ccc(C(=O)NS(=O)(=O)C4(C)CC4)cc3n1C2` [Compound 2, (1aR,12bS)-8-cyclohexyl-11-fluoro-N-((1-methylcyclopropyl)sulfonyl)-1a-((3-methyl-3,8-diazabicyclo[3.2.1]oct-8-yl)carbonyl)-1,1a,2,12b-tetrahydrocyclopropa[d]indolo[2,1-a][2]benzazepine-5-carboxamide] yielded an EC50 [1] of 7 nM.
